Measured values from PMC6934184, “Selective DNA-PKcs inhibition extends the therapeutic index of localized radiotherapy and chemotherapy” (The Journal of Clinical Investigation, 2019).

Biological target: T1, TLK1 (Homo sapiens, UniProt Q9UKI8)
T1 construct: purchased Thermo Fisher Scientific (Life Technologies) SelectScreen
Assay: SelectScreen LanthaScreen
Type: binding
Conditions: read-out: % displacement
In short: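 SelectScreen broad panel; activity (Z'LYTE, Adapta) plus binding formats. ATP: Km app for CSF1R Z'LYTE; 10 for CAMK1 Adapta. Readout = % per kinase.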

T1 sequence (Q9UKI8 whole entry): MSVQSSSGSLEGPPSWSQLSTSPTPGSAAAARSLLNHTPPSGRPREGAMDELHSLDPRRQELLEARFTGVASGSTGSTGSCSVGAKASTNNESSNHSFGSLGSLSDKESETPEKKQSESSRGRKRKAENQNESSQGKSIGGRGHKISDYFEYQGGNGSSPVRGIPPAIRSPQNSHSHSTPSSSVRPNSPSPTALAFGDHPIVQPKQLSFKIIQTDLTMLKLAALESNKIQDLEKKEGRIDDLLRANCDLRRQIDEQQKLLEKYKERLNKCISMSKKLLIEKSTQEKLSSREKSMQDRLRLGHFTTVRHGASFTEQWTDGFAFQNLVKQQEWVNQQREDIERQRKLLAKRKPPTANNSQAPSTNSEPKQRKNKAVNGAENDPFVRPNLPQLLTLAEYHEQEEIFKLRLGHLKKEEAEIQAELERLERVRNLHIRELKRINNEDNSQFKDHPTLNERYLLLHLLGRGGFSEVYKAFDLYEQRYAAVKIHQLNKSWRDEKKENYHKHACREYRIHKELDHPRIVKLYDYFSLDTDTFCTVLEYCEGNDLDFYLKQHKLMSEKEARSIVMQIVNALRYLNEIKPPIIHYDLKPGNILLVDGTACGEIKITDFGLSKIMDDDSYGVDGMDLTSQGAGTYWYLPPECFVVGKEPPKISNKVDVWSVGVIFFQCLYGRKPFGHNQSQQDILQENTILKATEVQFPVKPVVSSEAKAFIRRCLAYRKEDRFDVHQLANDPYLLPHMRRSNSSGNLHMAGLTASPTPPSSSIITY

Structure (SMILES): CN(C(=O)CN1CCOCC1)c1ccc2sc3c(-c4cccc5c(=O)cc(N6CC7CCC(C6)O7)oc45)cccc3c2c1 [NU5455]
- inhibition at 1 µM: -0.8%
